Experimental data: patent US12533360B2, “Inhibition of BRD proteins suppresses the phenotype of uterine fibroids” (The University of Chicago, priority 2021, dated 2026)

Columns and labels:
[1] = tested on: immortalized human leiomyoma cell line (HuLM); assay: BRD inhibitor screening by MTT cell proliferation assay, HuLM cells; assay type: cell-based; conditions: 24 hours and 48 hours
Protocol: (§1) The immortalized human leiomyoma cell line (HuLM) and immortalized human uterine smooth muscle (UTSM) cells were cultured and maintained in phenol red-free, Dulbecco's Modified Eagle Medium: Nutrient Mixture F-12. The cells were grown at 37° C. and 5% CO2 in an incubator with saturating humidity.
(§2) Cell proliferation was measured using a 3-(4,5-dimethylthiazol-2-yl)-2,5-diphenyltetrazolium bromide (MTT) assay. 2×10^4 UTSM or HuLM cells per well were seeded into 12-well tissue culture plates in the absence or presence of each BRD inhibitor from Table 1 for 24 hours or 48 hours. The inhibitors used in this assay were from the Epigenetic Library at the University of Illinois at Chicago. This assay was performed three times in triplicate.

[2] = tested on: immortalized human uterine smooth muscle (UTSM) cells; assay: BRD inhibitor screening by MTT cell proliferation assay, UTSM cells; assay type: cell-based; conditions: 24 hours and 48 hours
Protocol: as §1, §2

UTSM and HuLM cells = assay: Cell proliferation by trypan blue exclusion assay, HuLM versus UTSM cells; assay type: cell-based, human; conditions: 1-25 μM, 48 hours
Protocol: Cell proliferation was measured using trypan blue exclusion assay. UTSM and HuLM cells (2×10^4 cells per well) were seeded into 12-well tissue culture plates. After 24 hours the cells were cultured in the absence or presence of the BRD inhibitor I-BET762 or (+)-JQ1 at a dose range from 1-25 μM for 48 hours. DMSO was used as a vehicle control. Cells were trypsinized, collected by centrifuge, and resuspended in serum-free medium. Equal volumes of 0.4% trypan blue and cell suspension were mixed and cells were counted using a hemacytometer.

HuLM cells [3] = assay: RNA-sequencing / transcriptome analysis of treated HuLM cells; assay type: cell-based, human; conditions: 5 μM, 48 hr
Protocol: To determine the mechanism underlying the inhibitory effect of BRD9 inhibition on the UFs, the HuLM cells were treated with BRD9 inhibitor I-BRD9 (5 μM, n=4), TP-472 (5 μM, n=3), and DMSO vehicle control (n=4) for 48 hr. RNA was isolated using Trizol. RNA quality and quantity were assessed using the Agilent bio-analyzer. Strand-specific RNA-SEQ libraries were prepared using a TruSEQ total RNA-SEQ library protocol (Illumina provided). Library quality and quantity were assessed using the Agilent bio-analyzer and libraries were sequenced using an Illumina NovaSEQ6000 (illumine provided reagents and protocols).
A variety of R packages was used for this analysis. All graphics and data wrangling were handled using the tidyverse suite of packages (available from tidyverse.org). All packages used are available from the Comprehensive R Archive Network (CRAN), Bioconductor.org, or GitHub. The reads were mapped to the human reference transcriptome using STAR, version 2.6.1d, as previously described (Dobin et al., Bioinformatics 29 (1):15-21 (2013)). The quality of raw reads, as well as the results of STAR mapping, are generated using fastqc (available from bioinformatics.babraham.ac.uk/projects/fastqc/) and multiqc (available from multiqc.info). Raw reads were mapped to the human reference transcriptome using Salmon, version 1.4.0 (available from combine-lab.github.io/salmon/). After reading mapping with Salmon, Bioconductor (available from bioconductor.org/packages/release/bioc/html/tximport) was used to read Salmon outputs into the R environment. Annotation data from Gencode V34 was used to summarize data from transcript-level to gene-level.

HuLM cells [4] = assay: Western immunoblot of HuLM cells after BRD inhibition treatment; assay type: cell-based, human; conditions: 0-25 μM, 48 hours
Text: Cells were collected and lysed in RIPA lysis buffer with protease and phosphatase inhibitor cocktail (Thermo Scientific, Waltham, MA, USA), and the protein was quantified using the Bradford method (Bio-Rad Protein Assay kit). The antibodies used were: METTL3 (ab195352, Abcam), YTHDC1 (ab122340, Abcam), YTHDC2 (35440, Cell Signaling), YTHDF2 (ab220163, Abcam), BCL-2 (ab182858, Abcam), FN (26836, Cell Signaling), PCNA (GTX100539, Genetex), BRD2 (5848, cell signaling), BRD3 (ab50818, Abcam), BRD9 (58906, Cell Signaling). The antigen-antibody complex was detected with Trident Femto Western HRP substrate (GeneTex, Irvine, CA, USA). Specific protein bands were visualized using ChemiDoc XRS ? molecular imager (Bio-Rad, Hercules, CA, USA).
HuLM cells were cultured in phenol red-free, 10% fetal bovine serum Dulbecco's Modified Eagle Medium: Nutrient Mixture F-12 at 37° C., 5% CO2 in the absence or presence of the BRD inhibitors I-BRD9 and TP-472 for 48 hours respectively. The concentrations of both inhibitors were used in the range of 0-25 μM. Cells were collected after treatment for Western immunoblot as described above.

Structure (SMILES)	UF (HuLM) cell proliferation [1]	myometrial (UTSM) cell proliferation [2]	cellular proliferation, UF cells versus myometrium cells (UTSM and HuLM cells)	Hallmark analysis: pathway alteration in response to inhibition of BRD (HuLM cells [3])	pathways altered (bioinformatic analysis of RNA sequencing) (HuLM cells [3])	expression of YTHDC1 (HuLM cells [4])	expression of YTHDC2 (HuLM cells [4])	expression of YTHDF2 (HuLM cells [4])	expression of anti-apoptosis protein BCL-2 (HuLM cells [4])	fibronectin (FN) levels (HuLM cells [4])	levels of PCNA (marker for cell proliferation) (HuLM cells [4])	expression of METTL3 (HuLM cells [4])
Cn1cc(CCn2cnc(-c3cnn(C)c3)c2-c2ccc(C#N)cc2)cn1 [BAZ2-ICR]	selectively inhibited UF	not myometrial cell proliferation										
CCNC(=O)C[C@@H]1N=C(c2ccc(Cl)cc2)c2cc(OC)ccc2-n2c(C)nnc21 [I-BET762]			reduced cellular proliferation more potently in UF cells than myometrium cells in a dose dependent manner									
CCn1cc(-c2cccc(C(F)(F)F)c2)c2sc(C(=N)NC3CCS(=O)(=O)CC3)cc2c1=O [I-BRD9]	selectively inhibited UF	not myometrial cell proliferation		E2F, MYC Target, G2M checkpoint, and mitotic spindle pathways	altered the pathways related to biological processes, transcriptional factors	dose-dependent downregulation	dose-dependent downregulation	dose-dependent downregulation	increased the expression of the anti-apoptosis protein BCL-2	decreased FN levels	decreasing the levels of PCNA	
Cc1cc(=O)n(C)c2cc(N3C(=O)CC[C@H](NS(=O)(=O)CC(C)C)[C@H]3c3ccc(Cl)cc3)ccc12 [LP99]	selectively inhibited UF	not myometrial cell proliferation										
CCCS(=O)(=O)c1nc(NC2CC2)cc(-c2ccc3c(ccn3C3CC(C)(C)NC(C)(C)C3)c2)n1 [NVS-CECR2-1]	selectively inhibited UF	not myometrial cell proliferation										
CC(=O)c1cc(-c2cc(C(=O)NC3CC3)ccc2C)c2ncccn12 [TP-472]	selectively inhibited UF	not myometrial cell proliferation		E2F, MYC Target, G2M checkpoint, and mitotic spindle pathways	altered the pathways related to biological processes, transcriptional factors	dose-dependent downregulation	dose-dependent downregulation			decreased FN levels	decreasing the levels of PCNA	dose-dependent downregulation
